# Molecular target: EGFR (human) (UniProt P00533)
# Sequence (P00533 whole entry, looked up): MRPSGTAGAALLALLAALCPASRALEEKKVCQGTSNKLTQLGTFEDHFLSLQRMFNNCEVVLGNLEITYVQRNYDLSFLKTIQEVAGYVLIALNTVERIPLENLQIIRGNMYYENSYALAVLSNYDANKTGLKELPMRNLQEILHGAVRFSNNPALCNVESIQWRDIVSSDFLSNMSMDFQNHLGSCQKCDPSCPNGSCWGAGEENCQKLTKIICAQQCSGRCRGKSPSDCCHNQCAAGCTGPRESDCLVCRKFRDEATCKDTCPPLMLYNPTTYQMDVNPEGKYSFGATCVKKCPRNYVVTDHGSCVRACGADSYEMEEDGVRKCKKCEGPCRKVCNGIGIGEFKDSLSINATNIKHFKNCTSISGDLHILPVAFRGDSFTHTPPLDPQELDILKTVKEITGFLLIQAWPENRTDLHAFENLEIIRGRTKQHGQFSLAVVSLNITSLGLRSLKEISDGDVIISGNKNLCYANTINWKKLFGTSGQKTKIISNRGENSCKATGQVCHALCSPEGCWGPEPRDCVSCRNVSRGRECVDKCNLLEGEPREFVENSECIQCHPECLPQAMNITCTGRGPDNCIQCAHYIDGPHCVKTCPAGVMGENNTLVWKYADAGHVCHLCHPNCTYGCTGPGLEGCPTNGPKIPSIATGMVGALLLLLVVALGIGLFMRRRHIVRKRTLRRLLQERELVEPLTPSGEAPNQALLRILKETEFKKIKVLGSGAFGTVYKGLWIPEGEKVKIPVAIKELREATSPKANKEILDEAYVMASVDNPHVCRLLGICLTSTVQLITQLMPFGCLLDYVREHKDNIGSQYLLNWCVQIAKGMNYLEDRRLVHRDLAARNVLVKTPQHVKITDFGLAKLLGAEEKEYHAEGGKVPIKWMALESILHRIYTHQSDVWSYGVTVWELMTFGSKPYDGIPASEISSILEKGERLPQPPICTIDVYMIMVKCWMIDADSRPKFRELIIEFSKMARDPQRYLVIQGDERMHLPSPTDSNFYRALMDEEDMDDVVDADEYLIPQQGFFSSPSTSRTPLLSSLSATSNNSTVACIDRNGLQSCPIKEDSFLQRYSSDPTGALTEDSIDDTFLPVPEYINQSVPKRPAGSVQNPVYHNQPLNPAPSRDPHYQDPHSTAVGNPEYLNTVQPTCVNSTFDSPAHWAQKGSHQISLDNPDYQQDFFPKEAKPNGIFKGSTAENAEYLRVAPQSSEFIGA
row,SMILES,IC50 [µM]
1,Cc1ccc(CNC(=O)c2cccc(-c3cnc(N)c(C(=O)N[C@H]4CCCNC4)n3)c2)c(F)c1F,≥ 10
2,Nc1ncc(-c2cccc(C(=O)NCc3ccc(Cl)cc3F)c2)nc1C(=O)N[C@H]1CCCNC1,≥ 10
3,Nc1ncc(-c2cccc(CNC(=O)Nc3ccc(-c4ccccc4)cc3)c2)nc1C(=O)N[C@H]1CCCNC1,≥ 10
4,Nc1ncc(-c2cccc(C(=O)NCc3ccc(Cl)cc3)c2)nc1C(=O)N[C@H]1CCCNC1,≥ 10
5,COc1ccc(CNC(=O)c2cccc(-c3cnc(N)c(C(=O)N[C@H]4CCCNC4)n3)c2)cc1,≥ 10
6,Nc1ncc(-c2cccc(C(=O)NCc3ccc(OC(F)(F)F)cc3)c2)nc1C(=O)N[C@H]1CCCNC1,≥ 10
7,Nc1ncc(-c2cccc(CNC(=O)c3cccs3)c2)nc1C(=O)N[C@H]1CCCNC1,1 to 10
8,CN(C)c1ccc(CNC(=O)c2cccc(-c3cnc(N)c(C(=O)N[C@H]4CCCNC4)n3)c2)cc1,≥ 10

# More lines, now with the values ahead:
row,IC50 [µM],SMILES
1,0.05 to 1,Nc1ncc(-c2cccc(NC(=O)Cc3ccc(F)cc3F)c2)nc1C(=O)N[C@H]1CCCNC1
2,1 to 10,Nc1ncc(-c2cccc(CN[C@@H]3c4ccccc4C[C@@H]3O)c2)nc1C(=O)N[C@H]1CCCNC1
3,1 to 10,CCNCCOc1cccc(-c2cnc(N)c(C(=O)N[C@H]3CCCNC3)n2)c1
4,1 to 10,Nc1ncc(-c2cccc(CNC(=O)c3ccc(F)cc3)c2)nc1C(=O)N[C@H]1CCCNC1
5,1 to 10,Nc1ncc(-c2cccc(NC(=O)c3cnc4ccccc4c3)c2)nc1C(=O)N[C@H]1CCCNC1

# Source: the Kinase Knowledgebase extract (Sharma et al. 2016)
